Reference: patent publication EP2325187A1, “THE HYDROSULFATE OF PRASUGREL, ITS PHARMACEUTICAL COMBINATION AND USES THEREOF” (priority 2008, dated 2010)

Columns and labels:
[1] = dog, in vivo, 10 mg/kg
Text: Six healthy male beagle dogs of around 7-month-old, without statistical difference in their weights, are used in the experiments and fed normally for 2 weeks without receiving any drug. Six beagle dogs are divided randomly into prasugrel bisulfate group and prasugrel hydrochloride group, with 3 dogs in each group. Following the process disclosed in Experimental Example 1 of Chinese Patent Publication No. CN1214031A, the pharmacokinetic parameters of S-methylate in the plasma of the dogs in each group after administration are determined (the administration dosage for both groups is 10mg/kg).

[2] = system: platelet aggregation induced by ADP; test: Inhibition of platelet aggregation induced by ADP (platelet-rich plasma taken from dosed rats); assay type: in vivo
Protocol: (§1) […] male SD rats weighted 200-300g are provided by the Experimental Animal Center of Lunan Pharmaceutical Group corporation and are divided randomly into 5 groups with 10 rats in each group. The animals are acclimatized for one week before experiment. The animals in the excipient group (equivalent volume of physiological saline), prasugrel maleate group (10mg/kg), prasugrel bisulfate group (10mg/kg) are administered by gastric gavage once each day for 7 days.
(§2) Two days after administered as above, the animals are starved over night. One hour after administered on the second day, the animals are anaesthetized by intraperitoneal injection of urethane, and then celiotomized to separate the abdominal aorta. A polyethylene cannula is inserted to collect 5 ml of blood into a test tube (in the tube is placed beforehand 0.5 ml of 3.8% sodium citrate solution, i.e. the ratio of the anticoagulant solution and blood is 1:9). The whole blood is centrifuged at 1000 rpm for 4 min. 1 ml of platelet-rich plasma (PRP) is taken. The remaining liquid is centrifuged at 3000 rpm for further 8 min. 1 ml of platelet-poor plasma (PPP) is taken. The two samples are placed separately in two plastic test tubes under a constant temperature of (37±0.1)°C. Using ADP (30 ul/tube) and collagen (30 ul/tube) as aggregation inducers, the maximum aggregation intensity is determined and the inhibition rate is calculated. Rate of inhibiting aggregation = (aggregation intensity for excipient group-aggregation intensity for experimental group)/aggregation intensity for excipient group × 100% [formula]

[3] = system: platelet aggregation induced by collagen; test: Inhibition of platelet aggregation induced by collagen (platelet-rich plasma taken from dosed rats); assay type: in vivo
Protocol: as §1, §2

rats = test: Determination of the rate of hemorrhage (hyperemia, oedema, hemorrhage in the gastric mucosa); assay type: in vivo
Protocol: as §1
After the rate of inhibiting aggregation is determined, the rats are sacrificed and dissected. The appearances of hyperemiam, oedema, hemorrhage in the gastric mucosa are examined with the aid of a magnifier, and the rats developed with hyperemiam, oedema, hemorrhage in the gastric mucosa are recorded into corresponding test groups as cases of hemorrhage.

[4] = rats, 10mg/kg by gastric gavage, n=10 per group, gastric mucosa

## CC(=O)Oc1cc2c(s1)CCN(C(C(=O)C1CC1)c1ccccc1F)C2 (stereo not drawn) [Prasugrel Bisulfate, 2-acetyloxy-5-(α-cycloproylcarbonyl-2-fluorobenzyl)-4,5,6,7-tetrahydrothieno[3,2-C]pyridine bisulfate]
[1]
  AUC: 82.3 ± 7.6 µg·min/mL
  Cmax: 1210 ± 130 ng/mL
  bioavailability: better bioavailability than prasugrel hydrochloride
[2]; 10mg/kg by gastric gavage once each day, inducer ADP 30 ul/tube, maximum aggregation intensity
  ADP Aggregation Intensity (%): 0.336±0.075 %
[2]; 10mg/kg, result in words
  inhibition to platelet aggregation induced by ADP: very significant inhibition
[2]; Rattus norvegicus, Platelet, po, 10mg/kg by gastric gavage once each day, inducer ADP 30 ul/tube, relative to excipient group, read-out: ADP Inhibition Rate (%)
  inhibition at 10 mg/kg: 48.5 ± 10.6%
[3]; 10mg/kg by gastric gavage once each day, inducer collagen 30 ul/tube, maximum aggregation intensity
  Collagen Aggregation Intensity (%): 0.346±0.083 %
[3]; 10mg/kg, result in words
  inhibition to platelet aggregation induced by collagen: very significant inhibition
[3]; Rattus norvegicus, Platelet, po, 10mg/kg by gastric gavage once each day, inducer collagen 30 ul/tube, relative to excipient group, read-out: Collagen Inhibition Rate (%)
  inhibition at 10 mg/kg: 54.3 ± 13.5%
rats; rat, in vivo
  rate of hemorrhage: significantly lower than that in the prasugrel maleate group
rats; [4]
  Cases of Hemorrhage: 1
  Rate of Hemorrhage (%): 10%
